Experimental data: patent publication US11370794B2, “Toll-like receptor antagonist compounds and methods of use” (Dynavax Technologies Corporation, priority 2016, dated 2022)
Read-outs that look alike come from different tables or passages of the source.

Experiments:
human TLR8 = biological target: T1, human TLR8 (Homo sapiens, UniProt Q9NR97); assay: Inhibition of human TLR8 in human monocytes (TNF-alpha / IL-1 beta ELISA); assay type: cell-based; details: human monocytes, agonist ORN8L 100 μg/mL, 24 hours
T1 construct: endogenous in cells; host or cells: primary human monocytes (CD14 microbeads) from buffy coats of healthy donors
T1 sequence (Q9NR97 27-1041): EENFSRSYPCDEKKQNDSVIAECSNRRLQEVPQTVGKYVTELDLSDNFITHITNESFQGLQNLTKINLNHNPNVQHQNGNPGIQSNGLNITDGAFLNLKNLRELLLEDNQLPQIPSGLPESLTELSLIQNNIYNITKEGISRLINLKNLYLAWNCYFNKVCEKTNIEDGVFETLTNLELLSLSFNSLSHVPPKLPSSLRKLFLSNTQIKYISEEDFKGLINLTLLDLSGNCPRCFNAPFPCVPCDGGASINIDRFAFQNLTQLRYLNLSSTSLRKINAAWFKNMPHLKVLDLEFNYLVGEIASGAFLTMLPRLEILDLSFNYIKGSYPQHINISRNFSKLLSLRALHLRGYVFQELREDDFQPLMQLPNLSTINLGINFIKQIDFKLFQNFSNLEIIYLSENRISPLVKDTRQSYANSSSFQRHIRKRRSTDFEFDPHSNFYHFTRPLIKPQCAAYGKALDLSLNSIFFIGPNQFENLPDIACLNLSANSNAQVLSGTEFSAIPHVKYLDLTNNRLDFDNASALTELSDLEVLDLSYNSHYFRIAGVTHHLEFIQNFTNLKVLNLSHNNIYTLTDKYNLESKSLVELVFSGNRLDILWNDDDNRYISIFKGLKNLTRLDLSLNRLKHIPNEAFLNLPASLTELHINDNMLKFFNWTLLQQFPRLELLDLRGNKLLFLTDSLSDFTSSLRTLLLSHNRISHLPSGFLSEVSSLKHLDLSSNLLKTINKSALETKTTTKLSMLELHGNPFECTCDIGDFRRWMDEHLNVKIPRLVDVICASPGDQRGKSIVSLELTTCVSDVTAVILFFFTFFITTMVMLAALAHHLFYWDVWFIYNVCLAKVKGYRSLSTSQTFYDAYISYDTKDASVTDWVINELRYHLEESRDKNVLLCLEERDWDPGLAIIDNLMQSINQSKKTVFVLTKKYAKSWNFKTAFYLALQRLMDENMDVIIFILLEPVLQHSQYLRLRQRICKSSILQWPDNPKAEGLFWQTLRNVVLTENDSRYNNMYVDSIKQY
Excerpt: Example B2—Inhibition of Human TLR8 in Human Monocytes
When placed in cell culture, engagement of TLR8 with an agonist leads to expression and release of cytokines into the media.
Buffy coats from anonymized, healthy human donors. CD14 microbeads (Milteny Cat. No. 130-050-201). TLR8 agonist, (5′-M2UGCUGCUUGUG-/glycerol/-GUGUUCGUCGUM2-5′ with M2=C6-linker, ORN8L, RNA oligonucleotide (Chem Genes Corp.). Human TNF-alpha ELISA kit (Mabtech Cat. No. 3510-1H-20). Human interleukin (IL)-1 beta ELISA kit (Mabtech Cat. No. 3415-1H-20).
Following isolation of monocytes from buffy coats, human monocytes were plated into 96 well plates at approximately 200,000 cells per well. Test compounds were serially diluted and added to the plates. Immediately after adding test compounds, the TLR8 agonist (ORN8L, RNA oligonucleotide) was added to a final concentration of 100 μg/mL. Cells were incubated for 24 hours at 37° C. A portion of the media supernatant was analyzed for the presence of TNF-alpha and/or IL-1 beta using ELISA kits. The amount of TNF-alpha or IL-1 beta produced is a reflection of the amount of TLR8-dependent receptor activity. The IC50 values (the concentration at which 50% of the TLR8-dependent receptor activity is reduced) were calculated based upon the TLR8-dependent receptor activity over a range of different test compound concentrations.

human TLR9 = biological target: T2, human TLR9 (Homo sapiens, UniProt Q9NR96); assay: Inhibition of human TLR9 in human B cells (IL-6 ELISA); assay type: cell-based; details: for IC50: human B cells, agonist 1018 ISS 1 μM, IL-6 readout, 48 hours, range about 0.01 to 10 μM, read-out: Human TLR9 IC50; for inhibits TLR9-dependent responses (in words): summary statement of the description
T2 construct: endogenous in cells; host or cells: primary human B cells (CD19 microbeads) from buffy coats of healthy donors
T2 sequence (Q9NR96 26-1032): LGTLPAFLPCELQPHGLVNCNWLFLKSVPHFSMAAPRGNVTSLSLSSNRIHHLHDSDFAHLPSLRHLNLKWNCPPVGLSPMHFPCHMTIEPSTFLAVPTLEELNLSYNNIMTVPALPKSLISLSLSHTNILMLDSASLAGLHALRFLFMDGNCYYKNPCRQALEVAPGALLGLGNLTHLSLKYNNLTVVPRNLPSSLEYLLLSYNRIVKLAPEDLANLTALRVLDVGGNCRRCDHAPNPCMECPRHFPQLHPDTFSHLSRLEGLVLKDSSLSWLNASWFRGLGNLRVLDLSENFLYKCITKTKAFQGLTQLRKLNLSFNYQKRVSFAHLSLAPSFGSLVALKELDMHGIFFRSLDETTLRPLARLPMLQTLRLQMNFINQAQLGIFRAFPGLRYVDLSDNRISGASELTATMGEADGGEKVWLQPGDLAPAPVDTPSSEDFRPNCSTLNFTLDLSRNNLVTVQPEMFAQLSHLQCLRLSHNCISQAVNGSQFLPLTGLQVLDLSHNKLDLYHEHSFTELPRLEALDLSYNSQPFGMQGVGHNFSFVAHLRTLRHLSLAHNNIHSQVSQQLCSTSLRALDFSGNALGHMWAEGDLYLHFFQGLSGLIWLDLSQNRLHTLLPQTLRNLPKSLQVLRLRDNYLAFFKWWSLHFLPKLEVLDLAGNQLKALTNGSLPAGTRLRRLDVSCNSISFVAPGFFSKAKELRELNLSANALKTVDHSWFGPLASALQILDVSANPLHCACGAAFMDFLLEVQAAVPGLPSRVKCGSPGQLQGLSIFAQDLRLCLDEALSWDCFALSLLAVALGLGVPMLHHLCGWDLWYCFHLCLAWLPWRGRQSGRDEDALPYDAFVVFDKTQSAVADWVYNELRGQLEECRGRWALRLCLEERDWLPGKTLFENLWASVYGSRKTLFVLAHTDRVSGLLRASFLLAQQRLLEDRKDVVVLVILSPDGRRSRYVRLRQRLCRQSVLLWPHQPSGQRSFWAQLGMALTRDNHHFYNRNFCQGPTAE
Protocol: Example B3—Inhibition of Human TLR9 in Human B Cells
When placed in cell culture, engagement of TLR9 with an agonist leads to expression and release of cytokines into the media.
Buffy coats from anonymized, healthy human donors. CD19 microbeads (Miltenyi Cat. No. 130-050-301). TLR9 agonist, 1018 ISS, CpG-containing DNA oligonucleotide. Human interleukin (IL)-6 ELISA kit (Mabtech Cat. No. 3460-1H-20).
Following isolation of […] from buffy coats, human B cells were plated into 96 well plates at approximately 300,000 cells per well. Test compounds were serially diluted and added to the plates. Test compounds were typically assayed using a concentration range from about 0.01 μM to about 10 μM. Certain test compounds were further assayed in an expanded dilution series using a compound concentration range from about 0.001 μM to about 30 μM. Immediately after adding test compounds, the TLR9 agonist (1018 ISS, CpG-containing DNA oligonucleotide) was added to a final concentration of 1 μM. Cells were incubated for 48 hours at 37° C. A portion of the media supernatant was analyzed for the presence of IL-6 using ELISA kits. The amount of IL-6 produced is a reflection of the amount of TLR9-dependent receptor activity. The IC50 values (the concentration at which 50% of the TLR9-dependent receptor activity is reduced) were calculated based upon the TLR9-dependent receptor activity over a range of different test compound concentrations.

[1] = IL-1 beta readout, read-out: Human TLR8 IC50 IL-1b
[2] = TNF-alpha readout, read-out: Human TLR8 IC50 TNF-a

SMILES: Cc1ccc(-n2nc3c(N4CCC(C(=O)N[C@H]5C[C@H](N(C)C)C5)CC4)nnc(C)c3c2C)cc1 [Compound No. 12a, 1-(3,4-dimethyl-2-(p-tolyl)-2H-pyrazolo[3,4-d]pyridazin-7-yl)-N-((1r,3r)-3-(dimethylamino)cyclobutyl)piperidine-4-carboxamide]
- IC50 (human TLR8; [1]): > 10000 nM
- IC50 (human TLR8; [2]): > 10000 nM
- IC50 (human TLR9): 71 nM

SMILES: Cc1ccc(-n2nc3c(N4CCC(C(=O)NCCCN5CCOCC5)CC4)nnc(C)c3c2C)cc1 [Compound No. 19x, 1-(3,4-dimethyl-2-(p-tolyl)-2H-pyrazolo[3,4-d]pyridazin-7-yl)-N-(3-morpholinopropyl)piperidine-4-carboxamide]
- IC50 (human TLR8; [1]): 740 nM
- IC50 (human TLR8; [2]): 740 nM
- IC50 (human TLR9): 18 nM
- inhibits TLR9-dependent responses (in words) (human TLR9): inhibit

SMILES: Cc1ccc(-n2nc3c(N4CCC(C(=O)NCCN(C)C)CC4)nnc(C)c3c2C)cc1 [Compound No. 21x, 1-(3,4-dimethyl-2-(p-tolyl)-2H-pyrazolo[3,4-d]pyridazin-7-yl)-N-(2-(dimethylamino)ethyl)piperidine-4-carboxamide]
- IC50 (human TLR8; [1]): > 10000 nM
- IC50 (human TLR8; [2]): > 10000 nM
- IC50 (human TLR9): 4 nM
- inhibits TLR9-dependent responses (in words) (human TLR9): inhibit

SMILES: Cc1ccc(-n2nc3c(N4CCC(CC(=O)NCCCN(C)C)CC4)nnc(C)c3c2C)cc1 [Compound No. 22, 2-(1-(3,4-dimethyl-2-(p-tolyl)-2H-pyrazolo[3,4-d]pyridazin-7-yl)piperidin-4-yl)-N-(3-(dimethylamino)propyl)acetamide]
- IC50 (human TLR8; [1]): > 10000 nM
- IC50 (human TLR8; [2]): > 10000 nM
- IC50 (human TLR9): 31 nM
- inhibits TLR9-dependent responses (in words) (human TLR9): inhibit

SMILES: Cc1ccc(-n2cc3cnnc(N4CCC(C(=O)NCCCN(C)C)CC4)c3n2)cc1 [Compound No. 29, N-(3-(dimethylamino)propyl)-1-(2-(p-tolyl)-2H-pyrazolo[3,4-d]pyridazin-7-yl)piperidine-4-carboxamide]
- IC50 (human TLR8; [1]): 1610 nM
- IC50 (human TLR8; [2]): > 10000 nM
- IC50 (human TLR9): 7 nM
- inhibits TLR9-dependent responses (in words) (human TLR9): inhibit

SMILES: Cc1ccc(-c2nc3c(N4CCC(C(=O)NCCCN(C)C)CC4)cccc3n2C)cc1 [Compound No. 53, N-(3-(dimethylamino)propyl)-1-(1-methyl-2-(p-tolyl)-1H-benzo[d]imidazol-4-yl)piperidine-4-carboxamide]
- IC50 (human TLR8; [2]): ≥ 20000 nM
- IC50 (human TLR9): 2230 nM

SMILES: Cc1ccc(-n2nc3c(N4CCN(C(=O)NCCCN(C)C)CC4)nnc(C)c3c2C)cc1 [Compound No. 76, 4-(3,4-dimethyl-2-(p-tolyl)-2H-pyrazolo[3,4-d]pyridazin-7-yl)-N-(3-(dimethylamino)propyl)piperazine-1-carboxamide]
- IC50 (human TLR8; [2]): 11700 nM
- IC50 (human TLR9): 118 nM

SMILES: Cc1ccc(-n2nc3c(N4CCC(C(=O)NCCNC(C)C)CC4)nnc(C)c3c2C)cc1 [compound 8, 1-(3,4-dimethyl-2-(p-tolyl)-2H-pyrazolo[3,4-d]pyridazin-7-yl)-N-(2-(isopropylamino)ethyl)piperidine-4-carboxamide]
- IC50 (human TLR8; [1]): > 10000 nM
- IC50 (human TLR8; [2]): > 10000 nM
- IC50 (human TLR9): 308 nM

SMILES: Cc1ccc(-n2nc3c(N4CCC(C(=O)NCCCN(C)C)C4)nnc(C)c3c2C)cc1 (stereo not shown) [compound 13, 1-(3,4-dimethyl-2-(p-tolyl)-2H-pyrazolo[3,4-d]pyridazin-7-yl)-N-(3-(dimethylamino)propyl)pyrrolidine-3-carboxamide]
- IC50 (human TLR8; [1]): > 10000 nM
- IC50 (human TLR8; [2]): > 10000 nM
- IC50 (human TLR9): 292 nM

SMILES: Cc1ccc(-n2nc3c(N4CC(C(=O)NCCCN(C)C)C4)nnc(C)c3c2C)cc1 [compound 15, 1-(3,4-dimethyl-2-(p-tolyl)-2H-pyrazolo[3,4-d]pyridazin-7-yl)-N-(3-(dimethylamino)propyl)azetidine-3-carboxamide]
- IC50 (human TLR8; [1]): > 10000 nM
- IC50 (human TLR8; [2]): > 10000 nM
- IC50 (human TLR9): 250 nM

SMILES: Cc1ccc(-n2nc3c(N4CCCC(C(=O)NCCNC(C)C)C4)nnc(C)c3c2C)cc1 (stereo not shown) [compound 16, 1-(3,4-dimethyl-2-(p-tolyl)-2H-pyrazolo[3,4-d]pyridazin-7-yl)-N-(2-(isopropylamino)ethyl)piperidine-3-carboxamide]
- IC50 (human TLR8; [2]): ≥ 20000 nM
- IC50 (human TLR9): 46 nM

SMILES: Cc1ccc(-n2nc3c(N4CCC(C(=O)NC5CCN(C)C5)CC4)nnc(C)c3c2C)cc1 (stereo not shown) [compound 17, 1-(3,4-dimethyl-2-(p-tolyl)-2H-pyrazolo[3,4-d]pyridazin-7-yl)-N-(1-methylpyrrolidin-3-yl)piperidine-4-carboxamide]
- IC50 (human TLR8; [1]): > 10000 nM
- IC50 (human TLR8; [2]): > 10000 nM
- IC50 (human TLR9): 83 nM

SMILES: Cc1ccc(-n2nc3c(N4CCC(C(=O)NC5CCN(C)CC5)CC4)nnc(C)c3c2C)cc1 [compound 18, 1-(3,4-dimethyl-2-(p-tolyl)-2H-pyrazolo[3,4-d]pyridazin-7-yl)-N-(1-methylpiperidin-4-yl)piperidine-4-carboxamide]
- IC50 (human TLR8; [1]): > 10000 nM
- IC50 (human TLR8; [2]): > 10000 nM
- IC50 (human TLR9): 137 nM
